Calls of active or inactive are those of the source. The calls are words filed in the database; no cut-off is given here.
Experiments:
[1] = tested on: SH-SY5Y; assay: Neuroprotective activity against amyloid beta (25 to 35)-induced cytotoxicity in human SH-SY5Y cells at 10 uM preincubated for 2 hrs followed by amyloid beta (25 to 35)-stimulation and measured after 24 hrs by MTT assay (reference value: 71.18 +/- 1.34); type: functional
[2] = species on record: Danio rerio; assay: Neuroprotective activity against PTZ-induced seizure in zebra fish AB at 10 uM pretreated for 24 hrs followed by PTZ-stimulation and measured after 15 mins; type: functional, organism-based

Compound | Activity [1] [%] | Activity [2]
CC(=O)OC[C@]12[C@H](OC(=O)c3ccccc3)C[C@@H]3[C@@H](OC(C)=O)[C@]1(OC3(C)C)[C@H](C)C[C@H](OC(C)=O)[C@@H]2OC(C)=O | 79.62 | 
CC(=O)OC[C@]12[C@H](OC(C)=O)[C@H](OC(=O)c3ccccc3)[C@@H]3[C@@H](OC(C)=O)[C@]1(OC3(C)C)[C@H](C)C[C@H](OC(=O)c1ccccc1)[C@@H]2OC(=O)c1ccccc1 | 80.92 | 
CCC(C)C(=O)O[C@H]1C[C@](C)(O)[C@]23OC(C)(C)[C@H](C[C@H](OC(=O)c4ccccc4)[C@]2(COC(C)=O)[C@H]1OC(=O)C(C)CC)[C@H]3OC(C)=O (some centres not stated) | 92.86 | 
CC(=O)OC[C@]12[C@H](OC(=O)c3ccoc3)C[C@@H]3[C@@H](OC(C)=O)[C@]1(OC3(C)C)[C@@](C)(O)C[C@H](OC(=O)c1ccoc1)[C@@H]2OC(=O)c1ccoc1 | 70.11 | 
CCC(C)C(=O)O[C@H]1[C@@H](OC(=O)c2ccoc2)C[C@](C)(O)[C@]23OC(C)(C)[C@H](C[C@H](OC(=O)c4ccoc4)[C@]12COC(C)=O)[C@H]3OC(C)=O (some centres not stated) | 82.96 | 
CC(=O)OC[C@]12[C@H](OC(C)=O)[C@H](OC(=O)c3ccccc3)[C@@H]3[C@@H](OC(C)=O)[C@]1(OC3(C)C)[C@H](C)C[C@H](O)[C@@H]2OC(=O)c1ccccc1 | 85.91 | 
CCCCCC(=O)O[C@H]1C[C@@H](C)[C@]23OC(C)(C)[C@H]([C@@H](OC(=O)c4ccccc4)[C@@H](OC(C)=O)[C@]2(COC(C)=O)[C@H]1OC(=O)c1ccccc1)[C@H]3OC(C)=O | 86.65 | 
CC(=O)OC[C@]12[C@H](OC(C)=O)[C@H](OC(=O)c3ccccc3)[C@@H]3[C@@H](OC(C)=O)[C@]1(OC3(C)C)[C@H](C)C[C@H](OC(C)=O)[C@@H]2OC(=O)c1ccccc1 | 80.75 | Active
CC[C@H](C)C(=O)O[C@@H]1[C@H]2[C@@H](OC(C)=O)[C@]3(OC2(C)C)[C@H](C)C[C@H](OC(=O)c2ccccc2)[C@H](OC(=O)c2ccccc2)[C@@]3(COC(C)=O)[C@@H]1OC(C)=O | 80.11 | 
CC(=O)OC[C@]12C(=O)[C@@H](OC(=O)c3ccccc3)[C@@H]3[C@@H](OC(C)=O)[C@]1(OC3(C)C)[C@H](C)C[C@H](OC(=O)c1cccnc1)[C@@H]2O | 74.16 | 
O=C(O[C@@H]1Cc2c(O)cc(O)cc2O[C@@H]1c1cc(O)c(O)c(O)c1)c1cc(O)c(O)c(O)c1 [EPIGALOCATECHIN GALLATE] | 87.2 | 
CCC(C)C(=O)O[C@H]1C[C@](C)(O)[C@]23OC(C)(C)[C@H](C[C@@H](OC(=O)c4ccoc4)[C@]2(COC(C)=O)[C@H]1OC(=O)c1ccoc1)[C@H]3OC(C)=O (some centres not stated) | 71 | 
CC(=O)OC[C@]12[C@H](OC(=O)c3ccoc3)C[C@@H]3[C@@H](OC(C)=O)[C@]1(OC3(C)C)[C@@](C)(O)C[C@H](OC(=O)c1ccccc1)[C@@H]2OC(=O)c1ccoc1 | 80.8 | 
CCC(C)C(=O)O[C@H]1[C@@H](OC(C)=O)C[C@@H](C)[C@]23OC(C)(C)[C@H](C[C@@H](OC(=O)c4ccccc4)[C@]12COC(C)=O)[C@H]3OC(C)=O (some centres not stated) | 88.34 | 
CC(=O)OC[C@]12[C@@H](OC(=O)c3ccccc3)C[C@@H]3[C@@H](OC(C)=O)[C@]1(OC3(C)C)[C@H](C)C[C@H](OC(=O)c1ccccc1)[C@@H]2OC(C)=O | 83.04 | inactive
